Measured values taken from US7183260B2, “C-terminal modified oxamyl dipeptides as inhibitors of the ICE/ced-3 family of cysteine proteases” (Idun Pharmaceuticals, Inc., priority 1998, dated 2007).

Legend:
Assay type in all cases: biochemical
Settings in all cases: continuous assay 60 min, reaction initiated by adding enzyme to substrate-inhibitor mixture
CPP32 = molecular target: T1, CPP32 (Homo sapiens, UniProt P42574); assay: Dissociation constant Ki and irreversible rate constant k3 for irreversible inhibitors (CPP32)
T1 sequence (P42574 29-175 limits assumed): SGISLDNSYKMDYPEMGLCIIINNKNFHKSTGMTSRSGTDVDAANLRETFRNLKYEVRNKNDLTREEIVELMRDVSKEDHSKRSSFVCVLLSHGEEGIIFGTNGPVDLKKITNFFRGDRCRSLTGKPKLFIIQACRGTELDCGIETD
T1 sequence (P42574 176-277 limits assumed): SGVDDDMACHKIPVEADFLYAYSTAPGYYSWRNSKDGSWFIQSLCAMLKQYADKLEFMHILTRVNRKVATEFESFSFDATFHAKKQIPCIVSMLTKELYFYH

MCH-2 = molecular target: T2, MCH-2 (Homo sapiens, UniProt P55212); assay: Dissociation constant Ki and irreversible rate constant k3 for irreversible inhibitors (Mch2)
T2 sequence (P55212 24-179 limits assumed): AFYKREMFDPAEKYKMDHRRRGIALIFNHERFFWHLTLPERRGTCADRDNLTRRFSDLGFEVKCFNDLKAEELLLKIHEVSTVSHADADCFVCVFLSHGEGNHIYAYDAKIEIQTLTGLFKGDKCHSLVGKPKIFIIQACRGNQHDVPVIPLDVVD
T2 sequence (P55212 194-293 limits assumed): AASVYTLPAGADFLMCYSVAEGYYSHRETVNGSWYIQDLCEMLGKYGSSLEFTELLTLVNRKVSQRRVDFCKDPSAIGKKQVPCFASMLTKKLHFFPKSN

mICE = molecular target: T3, mICE (Mus musculus, UniProt P29452); assay: Dissociation constant Ki and irreversible rate constant k3 for irreversible inhibitors (ICE)
T3 sequence (P29452 123-296 limits assumed): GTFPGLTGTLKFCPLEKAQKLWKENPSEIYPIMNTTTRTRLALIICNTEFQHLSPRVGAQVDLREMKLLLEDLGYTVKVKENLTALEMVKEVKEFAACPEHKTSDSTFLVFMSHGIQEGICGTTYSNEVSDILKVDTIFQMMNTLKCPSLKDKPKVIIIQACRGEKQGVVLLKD
T3 sequence (P29452 315-402 limits assumed): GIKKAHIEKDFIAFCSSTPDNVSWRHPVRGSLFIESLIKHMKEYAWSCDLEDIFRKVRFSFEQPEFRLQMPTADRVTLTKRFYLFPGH

MCH-5 = MCH-5 (Homo sapiens, UniProt Q14790); assay: Dissociation constant Ki and irreversible rate constant k3 for irreversible inhibitors (Mch5)
MCH-5, sequence (Q14790 217-374 limits assumed, species assumed): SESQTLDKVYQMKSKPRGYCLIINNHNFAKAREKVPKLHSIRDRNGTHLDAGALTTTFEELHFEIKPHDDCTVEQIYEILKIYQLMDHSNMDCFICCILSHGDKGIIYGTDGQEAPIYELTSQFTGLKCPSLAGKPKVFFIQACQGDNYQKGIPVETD
MCH-5, sequence (Q14790 385-479 limits assumed, species assumed): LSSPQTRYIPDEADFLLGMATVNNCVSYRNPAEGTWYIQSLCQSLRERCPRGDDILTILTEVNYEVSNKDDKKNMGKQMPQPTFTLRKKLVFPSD

| Structure (SMILES) | Ki (CPP32) [nM] | Ki (MCH-2) [nM] | Ki (mICE) [nM] | Ki (MCH-5) [nM] | CPP32 k3/Ki (CPP32) | MCH-2 k3/Ki (MCH-2) | mICE k3/Ki (mICE) | MCH-5 k3/Ki (MCH-5) |
| --- | --- | --- | --- | --- | --- | --- | --- | --- |
| CC(C)[C@H](NC(=O)C(=O)Nc1cccc2ccccc12)C(=O)N[C@@H](CC(=O)O)C(=O)COc1c(F)cc(F)cc1F [Example 6] | 39 | 42 | 8.8 | 5.3 | – | – | – | – |
| CC(C)[C@H](NC(=O)C(=O)Nc1cccc2ccccc12)C(=O)N[C@@H](CC(=O)O)C(=O)COc1ccc(O)cc1 [Example 15] | 42 | 37 | 6.1 | 5.7 | 286,000 moles^−1 seconds^−1 | 69,100 moles^−1 seconds^−1 | 1,840,000 moles^−1 seconds^−1 | 625,000 moles^−1 seconds^−1 |
| C[C@H](NC(=O)C(=O)Nc1ccccc1C(C)(C)C)C(=O)N[C@@H](CC(=O)O)C(=O)COP(=O)(c1ccccc1)c1ccccc1 [Example 32] | 34 | 16 | 98 | 10 | 327,000 moles^−1 seconds^−1 | 275,000 moles^−1 seconds^−1 | 159,000 moles^−1 seconds^−1 | 282,000 moles^−1 seconds^−1 |
| CC(C)[C@H](NC(=O)C(=O)Nc1ccccc1Cc1ccccc1)C(=O)N[C@@H](CC(=O)O)C(=O)COc1c(F)c(F)cc(F)c1F [Example 84] | 367 | 82 | 43 | 24 | 54,800 moles^−1 seconds^−1 | 25,300 moles^−1 seconds^−1 | 344,000 moles^−1 seconds^−1 | 105,000 moles^−1 seconds^−1 |
| C[C@H](NC(=O)C(=O)Nc1cc(C(F)(F)F)ccc1N1CCCC1)C(=O)N[C@@H](CC(=O)O)C(=O)COP(=O)(c1ccccc1)c1ccccc1 [Example 46] | 52 | 7.3 | 5.3 | 4.4 | 78,600 moles^−1 seconds^−1 | 202,000 moles^−1 seconds^−1 | 1,503,000 moles^−1 seconds^−1 | 933,000 moles^−1 seconds^−1 |
| C[C@H](NC(=O)C(=O)Nc1ccccc1Cl)C(=O)N[C@@H](CC(=O)O)C(=O)COP(=O)(c1ccccc1)c1ccccc1 [Example 41] | 35 | 11 | 140 | 27 | 162,000 moles^−1 seconds^−1 | 247,000 moles^−1 seconds^−1 | 103,000 moles^−1 seconds^−1 | 179,000 moles^−1 seconds^−1 |
| C[C@H](NC(=O)C(=O)NCc1cccc2ccccc12)C(=O)N[C@@H](CC(=O)O)C(=O)COc1c(F)c(F)cc(F)c1F [Example 33] | 61 | 16 | 5.6 | 9.7 | 158,000 moles^−1 seconds^−1 | 335,000 moles^−1 seconds^−1 | 2,590,000 moles^−1 seconds^−1 | 1,260,000 moles^−1 seconds^−1 |
| CC(C)[C@H](NC(=O)C(=O)Nc1cccc2ccccc12)C(=O)N[C@@H](CC(=O)O)C(=O)COc1ccnc(C(F)(F)F)n1 [Example 12] | 64 | 95 | 7.2 | 12 | – | – | – | – |
| CC(C)[C@H](NC(=O)C(=O)Nc1cccc2ccccc12)C(=O)NC(CC(=O)O)C(=O)CF (mixture of isomers) [Example 3, (3RS)-3-[N-(N′-(1-NAPHTHYL)OXAMYL)VALINYL]AMINO-5-FLUORO-4-OXOPEINTANOIC ACID] | 32 | 17 | 1.8 | 1.3 | 413,000 moles^−1 seconds^−1 | 199,000 moles^−1 seconds^−1 | 2,170,000 moles^−1 seconds^−1 | 1,160,000 moles^−1 seconds^−1 |
| C[C@H](NC(=O)C(=O)Nc1cc(C(C)(C)C)ccc1C(C)(C)C)C(=O)N[C@@H](CC(=O)O)C(=O)COP(=O)(c1ccccc1)c1ccccc1 [Example 59] | 71 | 15 | 45 | 5.5 | 104,000 moles^−1 seconds^−1 | 308,000 moles^−1 seconds^−1 | 211,000 moles^−1 seconds^−1 | 1,340,000 moles^−1 seconds^−1 |
| C[C@H](NC(=O)C(=O)Nc1ccccc1I)C(=O)N[C@@H](CC(=O)O)C(=O)COC(=O)c1c(Cl)cccc1Cl [Example 75] | 105 | 34 | 13 | 4 | 67,600 moles^−1 seconds^−1 | 28,200 moles^−1 seconds^−1 | 1,270,000 moles^−1 seconds^−1 | 551,000 moles^−1 seconds^−1 |
| Cc1cc(OCC(=O)[C@H](CC(=O)O)NC(=O)[C@@H](NC(=O)C(=O)Nc2cccc3ccccc23)C(C)C)cc(=O)o1 [Example 8] | 26 | 254 | – | 29 | – | – | – | – |
| CC(C)[C@H](NC(=O)C(=O)NC(c1ccccc1)c1ccccc1)C(=O)N[C@@H](CC(=O)O)C(=O)COc1c(F)c(F)cc(F)c1F [Example 81] | 882 | 1150 | 54 | 36 | 5,380 moles^−1 seconds^−1 | 1,430 moles^−1 seconds^−1 | 201,000 moles^−1 seconds^−1 | 48,600 moles^−1 seconds^−1 |
| C[C@H](NC(=O)C(=O)Nc1cc(C(C)(C)C)ccc1C(C)(C)C)C(=O)N[C@@H](CC(=O)O)C(=O)COc1c(F)c(F)cc(F)c1F [Example 40] | 63 | 15 | 45 | 10 | 221,000 moles^−1 seconds^−1 | 192,000 moles^−1 seconds^−1 | 195,000 moles^−1 seconds^−1 | 248,000 moles^−1 seconds^−1 |
| C[C@H](NC(=O)C(=O)Nc1cccc2c1CCCC2)C(=O)N[C@@H](CC(=O)O)C(=O)COC(=O)c1c(Cl)cccc1Cl [Example 49] | 43 | 10 | 1.4 | 4 | 260,000 moles^−1 seconds^−1 | 264,000 moles^−1 seconds^−1 | 17,600,000 moles^−1 seconds^−1 | 1,920,000 moles^−1 seconds^−1 |
| C[C@H](NC(=O)C(=O)Nc1ccccc1C(C)(C)C)C(=O)N[C@@H](CC(=O)O)C(=O)COC(=O)c1c(Cl)cccc1Cl [Example 37] | 78 | 13 | 465 | 83 | 142,000 moles^−1 seconds^−1 | 191,000 moles^−1 seconds^−1 | 43,300 moles^−1 seconds^−1 | 39,100 moles^−1 seconds^−1 |
| CC(C)[C@H](NC(=O)C(=O)Nc1cccc2ccccc12)C(=O)N[C@@H](CC(=O)O)C(=O)COc1c(-c2ccccc2)oc2ccccc2c1=O [Example 9] | 59 | 336 | 128 | 453 | 43,600 moles^−1 seconds^−1 | – | 82,100 moles^−1 seconds^−1 | 0 mol⁻¹ s⁻¹ |
| C[C@H](NC(=O)C(=O)Nc1cc(C(C)(C)C)ccc1C(C)(C)C)C(=O)N[C@@H](CC(=O)O)C(=O)COC(=O)c1c(Cl)cccc1Cl [Example 60] | 58 | 49 | 26 | 14 | 189,000 moles^−1 seconds^−1 | 146,000 moles^−1 seconds^−1 | 289,000 moles^−1 seconds^−1 | 306,000 moles^−1 seconds^−1 |
| C[C@H](NC(=O)C(=O)Nc1ccccc1I)C(=O)N[C@@H](CC(=O)O)C(=O)COC(=O)c1c(Cl)cccc1Cl [Example 38] | 13 | 6 | 152 | 6 | 942,000 moles^−1 seconds^−1 | 360,000 moles^−1 seconds^−1 | 90,100 moles^−1 seconds^−1 | 337,000 moles^−1 seconds^−1 |
| CC(C)[C@H](NC(=O)C(=O)Nc1ccccc1)C(=O)N[C@@H](CC(=O)O)C(=O)COc1c(F)c(F)cc(F)c1F [Example 82] | 389 | 100 | 7 | 5 | 36,000 moles^−1 seconds^−1 | 25,500 moles^−1 seconds^−1 | 1,490,000 moles^−1 seconds^−1 | 598,000 moles^−1 seconds^−1 |
| C/C=C/OC(=O)Oc1ccc(OCC(=O)[C@H](CC(=O)O)NC(=O)[C@@H](NC(=O)C(=O)Nc2cccc3ccccc23)C(C)C)cc1 [Example 16] | – | 43 | 9.5 | – | – | – | – | – |
